Results on 23 compounds are retold here after EP4644392A1, “PYRIDAZINE FUSED ARYL RING COMPOUND AND USE THEREOF” (Chia Tai Tianqing Pharmaceutical Group Co., Ltd., priority 2022, dated 2024).

One series relates to J774A.1 cells. As to the kind of experiment: Anti-pyroptosis activity assay in J774A.1 cells (CCK-8 readout, nigericin stimulation). In kind it is cell-based. To be noted: Mus musculus, J774.A1, nigericin 10 µM.
In series [1] the test system is IL-1β expression in THP-1 cells. Put plainly: In-vitro THP-1 cell (IL-1β) expression assay (LPS + nigericin, ELISA). It counts as cell-based. As to conditions: Homo sapiens; for inhibition at 0.001 µM: THP-1, read-out: 1 nM (% inhibition); for inhibition at 0.01 µM: THP-1, read-out: 10 nM (% inhibition); for inhibition at 0.1 µM: THP-1, read-out: 100 nM (% inhibition). As to the method: THP-1 cells in good growth status were collected into a centrifuge tube, and the cell density was adjusted to 2 × 10^6 cells/mL. The cells were then seeded into a 96-well plate (50 µL/well), and meanwhile, LPS (manufacturer: Sigma; 50 µL/well) was added at a final concentration of 100 ng/mL. The plate was then incubated at 37 °C with 5% CO2 for 3 h. […] The plate was incubated at 37 °C with 5% CO2 for 1 h. Nigericin (manufacturer: Millipore; 50 µL/well) was added at a final concentration of 10 µM, and the plate was incubated at 37 °C with 5% CO2 for 1 h and then centrifuged at 1500 rpm for 3 min. The supernatant was collected and stored at -20 °C for subsequent detection of human IL-1β.
Human IL-1β detection (manufacturer: R&D): Human IL-1β Capture Antibody (coating antibody) was added to a high-binding 96-well plate at a final concentration of 4 µg/mL (100 µL/well), and the plate was incubated at 4 °C overnight. The supernatant was discarded, and the plate was washed with PBST (300 µL/well, 3 times in total). A 1% BSA-PBS blocking buffer was added (200 µL/well), and the plate was blocked at 25 °C for 2 h. The supernatant was discarded, and the plate was washed with PBST (300 µL/well, 3 times in total). A standard curve sample and the diluted samples to be tested were then added (100 µL/well), and the plate was incubated at 25 °C for 2 h. The supernatant was discarded, and the plate was washed with PBST (300 µL/well, 3 times total). Human IL-1β Detection Antibody (detection secondary antibody) was added at a final concentration of 200 ng/mL (100 µL/well), and the plate was incubated at 25 °C for 2 h. The supernatant was discarded, and the plate was washed with PBST (300 µL/well, 3 times in total). Streptavidin-HRP (detection tertiary antibody) was then added (100 µL/well), and the plate was incubated at 25 °C for 20 min. The supernatant was discarded, and the plate was washed with PBST (300 µL/well, 3 times in total). TMB was added for color development (100 µL/well), and the plate was incubated at 25 °C for 5 min. Finally, 1 M H2SO4 was added to terminate the reaction (50 µL/well). Absorbance values were measured at 450/570 nm using a PerkinElmer Envision microplate reader. Data were analyzed using a four-parameter model to calculate the IL-1β expression amount and inhibition rate. […]
For orientation: In an ELISA, binding on a coated surface is turned into a signal by an enzyme label.

A short description of series [2]: In-vitro stability in liver microsomes. As to conditions: human liver microsomes 0.5 mg/mL, NADPH, 37 °C, 1 h.
The conditions of series [3]: microsomes, 1 h.

pEC50: −log10 of the molar value. Read-outs that look alike come from different tables or passages of the source. Where only a bound is given, the exact number is not on record here.

As a reminder, the pEC50 is the EC50 on a negative log10 scale, so that one unit is a factor of ten. A low value points to a large EC50. `Oc1cc(Cl)ccc1-c1nnc(N[C@@H]2COC[C@H]2O)c2c3c(cn12)CCC3` [Example 18]: in the series with J774A.1 cells, the pEC50 was 6.00 to 7.00.
As for `Oc1cc(C(F)(F)F)ccc1-c1nnc(N[C@@H]2CCCC[C@H]2O)c2c3c(cn12)CCC3` [Example 21], the pEC50 with J774A.1 cells was over 7.00.
The inhibition is the share of the control response that was lost under treatment. In turn, `CN1CCC[C@@H](Nc2nnc(-c3ccc(C(F)(F)F)cc3O)c3c4c(cn23)CCC4)C1` [Example 4] gave a pEC50 in the series on J774A.1 cells of 6.00 to 7.00. For the same compound, in series [1], the inhibition at 0.001 µM lay within 10 to 50%, the inhibition at 0.01 µM lay within 10 to 50% and the inhibition at 0.1 µM is at least 50%.
On to `Oc1cc(C(F)(F)F)ccc1-c1nnc(N[C@@H]2COC[C@@H]2O)c2c3c(cn12)CCC3` [Example 17], for which the pEC50 in the series on J774A.1 cells is 6.00 to 7.00.
For `CN1CCC[C@@H](Nc2nnc(-c3ccc(C(F)(F)F)cc3O)n3c4c(cc23)CCC4)C1` [Example 7], in series [2], the “Human Remaining amount at 60 min (%)” value turned out to be 90.01%.
As for `CN1CCC[C@@H](Nc2nnc(-c3ccc(C(F)(F)F)cc3O)n3cc4c(c23)CCC4)C1` [Example 5], the “Human Remaining amount at 60 min (%)” value in series [2] is listed as 72.41%. The same compound showed a pEC50 with J774A.1 cells of over 7.00. In addition, in series [1], the inhibition at 0.001 µM lay in the range of 10 to 50%, the inhibition at 0.01 µM was at least 50% and the inhibition at 0.1 µM was at least 50%.
Take `CN1CCC[C@@H](Nc2nnc(-c3ccc(C(F)(F)F)cc3O)c3cc4c(n23)CCC4)C1` [Example 6]: in the series with J774A.1 cells, the pEC50 is 6.00 to 7.00. Further, in series [1], the inhibition at 0.001 µM is 10 to 50%, the inhibition at 0.01 µM lay within 10 to 50% and the inhibition at 0.1 µM is at least 50%.
Consider `C=Cc1ccc(-c2nnc(N[C@@H]3CCCN(C)C3)c3cccn23)c(O)c1` [Example 12], for which the “Human Remaining amount at 60 min (%)” value in series [2] is listed as 100.53%. Moreover, in series [1], the inhibition at 0.001 µM was at least 50%, the inhibition at 0.01 µM was at least 50% and the inhibition at 0.1 µM is at least 50%.
As for `CN1CCC[C@@H](Nc2nnc(-c3ccc(C(F)(F)F)cc3O)n3cccc23)C1` [Example 1], the “Human Remaining amount at 60 min (%)” value in series [2] was 95.57%. In the series with J774A.1 cells, this compound showed a pEC50 of over 7.00. Besides, in series [1], the inhibition at 0.001 µM was at least 50% and the inhibition at 0.01 µM is at least 50%.
As to `CS(=N)(=O)N1CCC[C@@H](Nc2nnc(-c3ccc(C(F)(F)F)cc3O)n3cccc23)C1` (stereo partly shown) [Example 25], the “Human Remaining amount at 60 min (%)” value in series [2] was determined as 98.06%. For the same compound, the pEC50 in the series on J774A.1 cells was 6.00 to 7.00.
For `C#Cc1ccc(-c2nnc(N[C@@H]3CCCN(C)C3)c3c4c(cn23)CCC4)c(O)c1` [Example 11], the “Human Remaining amount at 60 min (%)” value in series [2] turned out to be 75.56%.
`CN1CCC[C@@H](Nc2nnc(-c3ccc(Cl)cc3O)n3cccc23)C1` [Example 13] gave a pEC50 with J774A.1 cells of over 7.00.
For the compound `Oc1cc(C(F)(F)F)ccc1-c1nnc(N[C@@H]2COC[C@H]2O)c2c3c(cn12)CCC3` [Example 16], the pEC50 with J774A.1 cells was 6.00 to 7.00.
On to `OCCN1CCC[C@@H](Nc2nnc(-c3ccc(C(F)(F)F)cc3O)n3cc4c(c23)CCC4)C1` [Example 8], for which the “Human Remaining amount at 60 min (%)” value in series [2] worked out at 79.13%.
Compound `CS(=O)(=O)N1CCC[C@@H](Nc2nnc(-c3ccc(C(F)(F)F)cc3O)n3cccc23)C1` [Example 22] gave a pEC50 with J774A.1 cells of 6.00 to 7.00.
In the series with J774A.1 cells, `O=S(=O)(C1CC1)N1CCC[C@@H](Nc2nnc(-c3ccc(C(F)(F)F)cc3O)n3cccc23)C1` [Example 24] gave a pEC50 of 6.00 to 7.00.
In the case of `C[C@]1(O)C[C@@H](Nc2nnc(-c3ccc(C(F)(F)F)cc3O)n3cccc23)C1` [Example 15], the pEC50 with J774A.1 cells was 6.00 to 7.00.
As for `OCCN1CCC[C@@H](Nc2nnc(-c3ccc(C(F)(F)F)cc3O)c3c4c(cn23)CCC4)C1` [Example 14], the “Human Remaining amount at 60 min (%)” value in series [2] turned out to be 93.13%.
Take `CN1CCC[C@@H](Nc2nnc(-c3ccc(C(F)(F)F)cc3O)n3c2cc2sccc23)C1` [Example 3]: in the series with J774A.1 cells, the pEC50 is 6.00 to 7.00. For the same compound, in series [1], the inhibition at 0.001 µM lay within 10 to 50%, the inhibition at 0.01 µM was 10 to 50% and the inhibition at 0.1 µM is at least 50%.
For `NS(=O)(=O)N1CCC[C@@H](Nc2nnc(-c3ccc(C(F)(F)F)cc3O)n3cccc23)C1` [Example 23], in series [2], the “Human Remaining amount at 60 min (%)” value is on record as 93.93%. For the same compound, the pEC50 with J774A.1 cells was over 7.00.
Consider `CC#Cc1ccc(-c2nnc(N[C@@H]3CCCN(C)C3)c3cccn23)c(O)c1` [Example 10], for which the “Human Remaining amount at 60 min (%)” value in series [2] stood at 99.00%.
For `C#Cc1ccc(-c2nnc(N[C@@H]3CCCN(C)C3)c3cccn23)c(O)c1` [Example 9], the “Human Remaining amount at 60 min (%)” value in series [2] turned out to be 98.65%. In the series on J774A.1 cells, this compound had a pEC50 of over 7.00. For the same compound, in series [1], the inhibition at 0.001 µM is at least 50%, the inhibition at 0.01 µM was at least 50% and the inhibition at 0.1 µM was at least 50%.
For `CN1CCC[C@@H](Nc2nnc(-c3ccc(C(F)(F)F)cc3O)c3cc4sccc4n23)C1` [Example 2], the pEC50 in the series with J774A.1 cells was over 7.00. Further, in series [1], the inhibition at 0.001 µM lay within 10 to 50%, the inhibition at 0.01 µM lay in the range of 10 to 50% and the inhibition at 0.1 µM was at least 50%. Besides, the “Human Remaining amount at 60 min (%)” value in series [3] stood at 80.23%.
